Results from patent US20250171430A1, “PYRAZOLYL COMPOUNDS AS KV7 CHANNEL ACTIVATORS” (Biohaven Therapeutics Ltd., priority 2022, published 2025).

Each compound was assayed against T1, Kv7.2/7.3 (Homo sapiens, UniProt O43525+O43526) (assay: Kv7.2/7.3 Activation Assay (Thallium Flux Assay)). Conditions: hKV7.2/7.3 cell line; test compound at single concentration of 10 μM; fluorescence at 90 sec normalized to positive control (retigabine, 30 μM).
T1 construct: Kv7.2 tetracycline-induced, Kv7.3 constitutive
Format: cell-based
In short: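 Single-point activity at 10 μM (0.1% DMSO, HEPES-buffered saline, pH 7.4) was scored from fluorescence at 90 s relative to 30 μM retigabine. Categories were none <0.15, moderate 0.15-0.7 and high >0.7. Thallium influx after stimulus addition was followed with FluxOR II Green dye in hKv7.2/7.3 cells, Kv7.2 expressed under overnight tetracycline (10 ng/mL) induction.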

| Compound | Kv7.2/7.3 Activity |
| --- | --- |
| Cn1nc(NC(=O)C2(O)CC2)c(C2CCC2)c1-c1ccc(F)cc1 [Compound 130, N-(4-cyclobutyl-5-(4-fluorophenyl)-1-methyl-1H-pyrazol-3-yl)-1-hydroxycyclopropane-1-carboxamide] | − (“−” No Activity < 0.15) |
| Cn1nc(NC(=O)C2(C(C)(F)F)CC2)c(C2CCC2)c1-c1ccc(F)cc1 [Compound 131, N-(4-cyclobutyl-5-(4-fluorophenyl)-1-methyl-1H-pyrazol-3-yl)-1-(1,1-difluoroethyl)cyclopropane-1-carboxamide] | ++ (“++” High Activity ≥ 0.7) |
| C[C@@H](C(=O)Nc1nn(C)c(-c2ccc(F)cc2)c1C1CCC1)C1CC(F)(F)C1 [Compound 132, (R)-N-(4-cyclobutyl-5-(4-fluorophenyl)-1-methyl-1H-pyrazol-3-yl)-2-(3,3-difluorocyclobutyl)propanamide] | + (“+” Moderate Activity 0.15-0.7) |
| Cn1nc(NC(=O)[C@H]2CC2(F)F)c(C2CCC2)c1-c1ccc(F)cc1 [Compound 133, (R)-N-(4-cyclobutyl-5-(4-fluorophenyl)-1-methyl-1H-pyrazol-3-yl)-2,2-difluorocyclopropane-1-carboxamide] | ++ (“++” High Activity ≥ 0.7) |
| Cn1nc(NC(=O)[C@@H]2CC2(F)F)c(C2CCC2)c1-c1ccc(F)cc1 [Compound 134, (S)-N-(4-cyclobutyl-5-(4-fluorophenyl)-1-methyl-1H-pyrazol-3-yl)-2,2-difluorocyclopropane-1-carboxamide] | − (“−” No Activity < 0.15) |
| CC(C)C1(C(=O)Nc2nn(C)c(-c3ccc(F)cc3)c2C2CCC2)CC1 [Compound 136, N-(4-cyclobutyl-5-(4-fluorophenyl)-1-methyl-1H-pyrazol-3-yl)-1-isopropylcyclopropane-1-carboxamide] | ++ (“++” High Activity ≥ 0.7) |
| Cn1nc(NC(=O)C2(C3CC3)CC2)c(C2CCC2)c1-c1ccc(F)cc1 [Compound 137, N-(4-cyclobutyl-5-(4-fluorophenyl)-1-methyl-1H-pyrazol-3-yl)-[1,1'-bi(cyclopropane)]-1-carboxamide] | ++ (“++” High Activity ≥ 0.7) |
| CC(C)CC1(C(=O)Nc2nn(C)c(-c3ccc(F)cc3)c2C2CCC2)CC1 [Compound 138, N-(4-cyclobutyl-5-(4-fluorophenyl)-1-methyl-1H-pyrazol-3-yl)-1-isobutylcyclopropane-1-carboxamide] | ++ (“++” High Activity ≥ 0.7) |
| Cn1nc(NC(=O)[C@H]2CC2(F)F)c(C2(C)CCC2)c1-c1ccc(F)cc1 [Compound 139, (R)-2,2-difluoro-N-(5-(4-fluorophenyl)-1-methyl-4-(1-methylcyclobutyl)-1H-pyrazol-3-yl)cyclopropane-1-carboxamide] | ++ (“++” High Activity ≥ 0.7) |
| Cn1nc(NC(=O)[C@@H]2CC2(F)F)c(C2(C)CCC2)c1-c1ccc(F)cc1 [Compound 140, (S)-2,2-difluoro-N-(5-(4-fluorophenyl)-1-methyl-4-(1-methylcyclobutyl)-1H-pyrazol-3-yl)cyclopropane-1-carboxamide] | + (“+” Moderate Activity 0.15-0.7) |
| CC(F)(F)C1(C(=O)Nc2nn(CC(F)(F)F)c(-c3ccc(F)cc3)c2C2CCC2)CC1 [Compound 141, N-(4-cyclobutyl-5-(4-fluorophenyl)-1-(2,2,2-trifluoroethyl)-1H-pyrazol-3-yl)-1-(1,1-difluoroethyl)cyclopropane-1-carboxamide] | − (“−” No Activity < 0.15) |
| C[C@H](C(=O)Nc1nn(CC(F)(F)F)c(-c2ccc(F)cc2)c1C1CCC1)C1(C(F)(F)F)CC1 [Compound 142, (S)-N-(4-cyclobutyl-5-(4-fluorophenyl)-1-(2,2,2-trifluoroethyl)-1H-pyrazol-3-yl)-2-(1-(trifluoromethyl)cyclopropyl)propanamide] | − (“−” No Activity < 0.15) |
| C[C@@H](C(=O)Nc1nn(CC(F)(F)F)c(-c2ccc(F)cc2)c1C1CCC1)C1(C(F)(F)F)CC1 [Compound 143, (R)-N-(4-cyclobutyl-5-(4-fluorophenyl)-1-(2,2,2-trifluoroethyl)-1H-pyrazol-3-yl)-2-(1-(trifluoromethyl)cyclopropyl)propanamide] | − (“−” No Activity < 0.15) |
| Cn1nc(NC(=O)[C@H]2C[C@]2(C)C(F)(F)F)c(C2CCC2)c1-c1ccc(F)cc1 [Compound 144, (1S,2S)-N-(4-cyclobutyl-5-(4-fluorophenyl)-1-methyl-1H-pyrazol-3-yl)-2-methyl-2-(trifluoromethyl)cyclopropane-1-carboxamide] | ++ (“++” High Activity ≥ 0.7) |
| Cn1nc(NC(=O)C2(C)CC2)c(C2CCC2)c1-c1ccc(F)cc1 [Compound 146, N-(4-cyclobutyl-5-(4-fluorophenyl)-1-methyl-1H-pyrazol-3-yl)-1-methylcyclopropane-1-carboxamide] | + (“+” Moderate Activity 0.15-0.7) |
| Cn1nc(NC(=O)[C@@H]2CC2(F)F)c(C2CCC2)c1C1CC(C)(C)C1 [Compound 147, (S)-N-(4-cyclobutyl-5-(3,3-dimethylcyclobutyl)-1-methyl-1H-pyrazol-3-yl)-2,2-difluorocyclopropane-1-carboxamide] | ++ (“++” High Activity ≥ 0.7) |
| Cn1nc(NC(=O)[C@H]2CC2(F)F)c(C2CCC2)c1C1CC(C)(C)C1 [Compound 148, (R)-N-(4-cyclobutyl-5-(3,3-dimethylcyclobutyl)-1-methyl-1H-pyrazol-3-yl)-2,2-difluorocyclopropane-1-carboxamide] | ++ (“++” High Activity ≥ 0.7) |
| Cc1nc(C)c(-c2c(C3CCC3)c(NC(=O)C3(C(F)(F)F)CC3)nn2C)s1 [Compound 149, N-(4-cyclobutyl-5-(2,4-dimethylthiazol-5-yl)-1-methyl-1H-pyrazol-3-yl)-1-(trifluoromethyl)cyclopropane-1-carboxamide] | − (“−” No Activity < 0.15) |
| Cn1nc(NC(=O)C2(C(F)(F)F)CC2)c(C2CCC2)c1-c1ccc(OC(F)(F)F)cc1 [Compound 150, N-(4-cyclobutyl-1-methyl-5-(4-(trifluoromethoxy)phenyl)-1H-pyrazol-3-yl)-1-(trifluoromethyl)cyclopropane-1-carboxamide] | + (“+” Moderate Activity 0.15-0.7) |
| Cn1nc(NC(=O)C2(C(F)(F)F)CC2)c(C2CCC2)c1C1CC(C)(C)C1 [Compound 151, N-(4-cyclobutyl-5-(3,3-dimethylcyclobutyl)-1-methyl-1H-pyrazol-3-yl)-1-(trifluoromethyl)cyclopropane-1-carboxamide] | ++ (“++” High Activity ≥ 0.7) |
| Cn1nc(NC(=O)C2(C)CC2)c(C2CCC2)c1-c1ccc(Cl)s1 [Compound 152, N-(5-(5-chlorothiophen-2-yl)-4-cyclobutyl-1-methyl-1H-pyrazol-3-yl)-1-methylcyclopropane-1-carboxamide] | ++ (“++” High Activity ≥ 0.7) |
| Cn1nc(NC(=O)C2(C(F)(F)F)CC2)c(C2CCC2)c1-c1ccc(Cl)s1 [Compound 153, N-(5-(5-chlorothiophen-2-yl)-4-cyclobutyl-1-methyl-1H-pyrazol-3-yl)-1-(trifluoromethyl)cyclopropane-1-carboxamide] | ++ (“++” High Activity ≥ 0.7) |
| Cn1nc(NC(=O)[C@H]2CC2(F)F)c(C2CCC2)c1-c1ccc(Cl)s1 [Compound 154, (R)-N-(5-(5-chlorothiophen-2-yl)-4-cyclobutyl-1-methyl-1H-pyrazol-3-yl)-2,2-difluorocyclopropane-1-carboxamide] | + (“+” Moderate Activity 0.15-0.7) |
| Cn1nc(NC(=O)[C@@H]2CC2(F)F)c(C2CCC2)c1-c1ccc(Cl)s1 [Compound 155, (S)-N-(5-(5-chlorothiophen-2-yl)-4-cyclobutyl-1-methyl-1H-pyrazol-3-yl)-2,2-difluorocyclopropane-1-carboxamide] | ++ (“++” High Activity ≥ 0.7) |
| Cn1nc(NC(=O)[C@@H]2CC2(F)F)c(C2CCC2)c1C1CC(F)(F)C1 [Compound 156, (S)-N-(4-cyclobutyl-5-(3,3-difluorocyclobutyl)-1-methyl-1H-pyrazol-3-yl)-2,2-difluorocyclopropane-1-carboxamide] | ++ (“++” High Activity ≥ 0.7) |
| Cn1nc(NC(=O)[C@H]2CC2(F)F)c(C2CCC2)c1C1CC(F)(F)C1 [Compound 157, (R)-N-(4-cyclobutyl-5-(3,3-difluorocyclobutyl)-1-methyl-1H-pyrazol-3-yl)-2,2-difluorocyclopropane-1-carboxamide] | ++ (“++” High Activity ≥ 0.7) |
| Cn1nc(NC(=O)C2(C(F)(F)F)CC2)c(C2CCC2)c1C1CC(F)(F)C1 [Compound 158, N-(4-cyclobutyl-5-(3,3-difluorocyclobutyl)-1-methyl-1H-pyrazol-3-yl)-1-(trifluoromethyl)cyclopropane-1-carboxamide] | ++ (“++” High Activity ≥ 0.7) |
| Cn1nc(NC(=O)[C@H]2CC2(F)F)c(C2CCC2)c1-c1ccc(F)cc1F [Compound 159, (R)-N-(4-cyclobutyl-5-(2,4-difluorophenyl)-1-methyl-1H-pyrazol-3-yl)-2,2-difluorocyclopropane-1-carboxamide] | + (“+” Moderate Activity 0.15-0.7) |
| Cn1nc(NC(=O)[C@@H]2CC2(F)F)c(C2CCC2)c1-c1ccc(F)cc1F [Compound 160, (S)-N-(4-cyclobutyl-5-(2,4-difluorophenyl)-1-methyl-1H-pyrazol-3-yl)-2,2-difluorocyclopropane-1-carboxamide] | − (“−” No Activity < 0.15) |
